Patent publication US20240051937A1, “ISOINDOLINONE AMIDE COMPOUNDS USEFUL TO TREAT DISEASES ASSOCIATED WITH GSPT1” (Monte Rosa Therapeutics, Inc., priority 2021, published 2024)
pIC50: −log10 of the molar value. Read-outs that look alike come from different tables or passages of the source.

Legend:
[1] = target: T1, Full length wild-type cereblon CRBN (Homo sapiens, UniProt Q96SW2); assay: Fluorescence polarization (FP) assay indicating cereblon binding
T1 construct: Full length wild-type cereblon CRBN (80.0 nM, 10 μL) was incubated in assay buffer
Source text: Protocol for Fluorescent Polarization Assay
Compound activity was monitored in a fluorescence polarization (FP) homogeneous assay using 1-[5-({2-[2-(2-{[2-(2,6-dioxopiperidin-3-yl)-1,3-dioxo-2,3-dihydro-1H-isoindol-4-yl]oxy}acetamido)ethoxy]ethyl}carbamoyl)pentyl]-3,3-dimethyl-2-[(1E,3E)-5-[(2E)-1,3,3-trimethyl-5-sulfo-2,3-dihydro-1H-indol-2-ylidene]penta-1,3-dien-1-yl]-3H-indol-1-ium-5-sulfonate as a fluorescent probe. Unless otherwise stated, all reagents were purchased from Sigma Aldrich. Enzymatic reactions were conducted in Perkin-Elmer Black 384 well ProxiPlate Plus (catalogue no. 6008269) in 10 μL total volume. Full length wild-type cereblon CRBN (80.0 nM, 10 μL) was incubated in assay buffer containing 20 mM HEPES (pH 8.0), […], 0.5 mM TCEP and 0.05% Tween 20 in the presence or absence of compound (300 nL). Inhibitors were stored as 10 mM DMSO stocks in an inert environment (low humidity, dark, low oxygen, room temperature) using the Storage Pod System. Compounds and DMSO were dispensed using the Echo E5XX (Labcyte Inc. USA) to give concentrations from 300 to 0.937 or 3000 to 9.3 nM in a 12 data point curve. […] Following incubation at room temperature for 30 min, the assay was initiated by dispensing the probe to a final concentration of 5 nM (2.5 nL of a 20 μM stock) using the Echo E5XX. FP was measured after a period of 12 hours using a Pherastar plate reader (BMG Labtech, Germany) exciting at 590 nm and measuring the amount of parallel and perpendicular light at 675 nm. The FP signal was subsequently normalized to the no-compound control (i.e., DMSO). Analysis and IC50 values were derived using Dotmatics (Dotmatics UK) software.

GSPT1 = GSPT1 (Homo sapiens, UniProt P15170+Q96SW2); assay: Immunofluorescence assay for GSPT1 degradation in CAL-Si cells; format: cell-based; set-up: CAL-Si cells were purchased from DSMZ (cat. Number ACC302); host or cells: CAL-Si (CAL-51) cells; conditions: 6 hours treatment
Procedure: The representative compounds were tested in an immunofluorescence assay for their activity to bind to degrade GSPT1. CAL-Si cells were purchased from DSMZ (cat. Number ACC302), sub-cultured in 90% Dulbecco's MEM (4.5 g/L glucose, Gibco 11965)+10% […] inactivated FBS (BioConcept, 2-01F136I) and incubated at 37° C., 5% CO2. For the assay, imaging microtiterplate Cell Carrier 96 Ultra (Perkin Elmer 6055302) were pre-coated with Fibronectin (Sigma F085, 30 μl at 0.2 μg/ml) in PBS (100 μl, Gibco 14190) for 45 min at room temperature, rinsed with PBS and CAL-Si cells (30K cells/well) were plated and let to adhere overnight. Cells were treated with compounds typically using a serial dilution ranging from 30 μM to 0.1 nM for 6 hours. Compounds were stored at 10 mM DMSO stocks. Vehicle (DMSO), positive (CC-885, 10 μM) and rescue controls (positive control plus 0.2 μM bortezomib) were also included at this stage. Cells were subsequently rinsed with PBS and fixed in 10% Formalin solution (50 μl, Sigma HT5011)) for 20 mins at room temperature. Following three consecutive PBS washes (100 μl), cells were permeabilized in 0.1% Triton X-100 in PBS (Sigma 93443, 50 μl) for 15 mins at room temperature. Following three further PBS washes, […] blocking buffer (1% BSA, Sigma A4503, in PBS) was added for 45 min for signal-to-noise reduction.
Primary antibody (human GSPT1, Sigma HPA052488) was diluted in blocking buffer (dil.1/300, 35 μl/well) and incubated with the cells overnight at 4° C. After three PBS washes, Alexa-fluor 488 coupled secondary antibodies (Invitrogen, A32731, dil.1/1000), Alexa-fluor 647-Phalloidin (Invitrogen, A22287, dil.1/200) and DAPI (Thermo, #62248, dil.1/1000) were diluted in blocking buffer and incubated with the samples for 2 hours at room temperature. After three final PBS washes, samples were conserved in […] PBS in the dark, until measurement. Image acquisition was performed on the Operetta High-Content Imager (Perkin-Elmer). Fluorescence intensity of Alexa-Fluor 488 (GSPT1), Alexa-Fluor 647 (Actin) and DAPI (Nucleus) were measured. For the determination of GSPT1 DC50 values, a custom algorithm implemented in the PerkinElmer image analysis software Harmony-Acapella® was developed. After user-defined setting of adjustment parameters, the analysis was run identically without human intervention for all image fields. DAPI staining of the nuclei was used to determine the location of cells using standard nuclei detection modules. Segmentation artifacts were removed by threshold-based filters for area, roundness and intensity. The outline of the cells was determined analogously from the sum of the normalized, smoothed DAPI and Actin channel, starting from each nucleus.
The Alexa-Fluor 488 (GSPT1) signal intensity in each cell was finally measured, in order to obtain a Mean intensity per cell. GSPT1 degradation (DC50) was calculated after normalization to controls and data import in CDD vault Database, using non-linear regression.

[2] = cereblon binding, CRBN 80.0 nM, probe 5 nM, FP read after 12 hours, read-out: rFP IC50
[3] = fluorescence polarization assay, read-out: IC50 value (cereblon binding)
[4] = read-out: Code: activity for GSPT1 degradation (DC50)
[5] = GSPT1 degradation, read-out: DC50

Chain of GSPT1 (P15170 whole entry): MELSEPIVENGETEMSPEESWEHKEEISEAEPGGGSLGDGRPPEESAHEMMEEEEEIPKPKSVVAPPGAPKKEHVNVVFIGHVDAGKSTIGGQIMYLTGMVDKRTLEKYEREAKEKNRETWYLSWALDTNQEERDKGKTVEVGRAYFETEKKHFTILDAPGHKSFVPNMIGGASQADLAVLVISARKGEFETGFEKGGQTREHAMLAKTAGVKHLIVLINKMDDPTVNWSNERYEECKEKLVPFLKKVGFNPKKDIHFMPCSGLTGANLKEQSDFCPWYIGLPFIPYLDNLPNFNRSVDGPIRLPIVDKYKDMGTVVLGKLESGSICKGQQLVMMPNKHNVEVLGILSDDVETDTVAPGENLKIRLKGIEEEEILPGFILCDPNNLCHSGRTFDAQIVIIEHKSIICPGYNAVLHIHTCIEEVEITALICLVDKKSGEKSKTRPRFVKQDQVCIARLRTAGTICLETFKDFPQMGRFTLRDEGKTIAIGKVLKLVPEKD
Chain of GSPT1 (Q96SW2 whole entry): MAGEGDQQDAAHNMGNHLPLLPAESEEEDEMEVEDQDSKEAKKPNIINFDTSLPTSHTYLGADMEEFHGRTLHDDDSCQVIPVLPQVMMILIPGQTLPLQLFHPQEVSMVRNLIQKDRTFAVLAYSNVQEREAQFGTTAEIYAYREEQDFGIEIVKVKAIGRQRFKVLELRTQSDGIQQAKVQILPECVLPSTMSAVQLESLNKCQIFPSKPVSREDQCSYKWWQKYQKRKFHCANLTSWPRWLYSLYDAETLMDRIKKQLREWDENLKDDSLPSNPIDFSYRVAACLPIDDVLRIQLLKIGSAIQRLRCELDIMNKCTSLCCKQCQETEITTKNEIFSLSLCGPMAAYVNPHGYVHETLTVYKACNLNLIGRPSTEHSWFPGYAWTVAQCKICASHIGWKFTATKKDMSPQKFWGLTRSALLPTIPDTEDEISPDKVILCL
Chain of GSPT1 (Q16531 whole entry partner): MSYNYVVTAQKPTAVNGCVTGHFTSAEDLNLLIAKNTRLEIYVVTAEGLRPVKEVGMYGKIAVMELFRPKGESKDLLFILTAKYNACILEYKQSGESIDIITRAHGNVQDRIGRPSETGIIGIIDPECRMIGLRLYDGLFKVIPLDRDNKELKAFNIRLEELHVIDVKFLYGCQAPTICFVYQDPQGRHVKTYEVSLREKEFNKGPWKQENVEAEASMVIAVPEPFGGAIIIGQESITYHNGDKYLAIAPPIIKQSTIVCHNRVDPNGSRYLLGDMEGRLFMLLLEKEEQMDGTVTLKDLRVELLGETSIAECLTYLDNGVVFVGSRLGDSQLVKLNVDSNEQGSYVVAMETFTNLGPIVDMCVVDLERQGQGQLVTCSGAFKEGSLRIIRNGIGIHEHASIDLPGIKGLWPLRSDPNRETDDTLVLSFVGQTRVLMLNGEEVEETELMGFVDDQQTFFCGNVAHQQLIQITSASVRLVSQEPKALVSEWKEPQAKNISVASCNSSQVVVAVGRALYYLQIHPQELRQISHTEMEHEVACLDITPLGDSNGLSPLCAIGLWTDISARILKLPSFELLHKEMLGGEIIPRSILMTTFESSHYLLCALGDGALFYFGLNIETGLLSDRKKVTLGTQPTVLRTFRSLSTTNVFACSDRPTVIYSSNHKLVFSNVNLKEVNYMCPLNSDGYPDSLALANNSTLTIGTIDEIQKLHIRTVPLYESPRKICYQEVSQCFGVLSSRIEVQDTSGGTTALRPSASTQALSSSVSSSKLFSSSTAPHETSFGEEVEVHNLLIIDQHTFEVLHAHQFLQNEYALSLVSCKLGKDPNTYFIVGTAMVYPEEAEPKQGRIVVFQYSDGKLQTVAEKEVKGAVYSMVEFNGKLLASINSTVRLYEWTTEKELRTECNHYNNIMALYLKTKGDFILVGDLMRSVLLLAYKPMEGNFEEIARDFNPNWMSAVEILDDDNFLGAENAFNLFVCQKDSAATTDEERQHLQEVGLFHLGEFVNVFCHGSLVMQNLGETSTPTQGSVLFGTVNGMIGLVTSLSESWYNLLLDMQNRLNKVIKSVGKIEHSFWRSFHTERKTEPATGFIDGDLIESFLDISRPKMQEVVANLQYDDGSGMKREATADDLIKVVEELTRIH
T1 sequence (Q96SW2 whole entry): as the sequence (Q96SW2 whole entry) above

| SMILES | pIC50 [1, 2] | pIC50 [1, 3] | DC50 (GSPT1; [4]) [nM] | DC50 (GSPT1; [5]) [nM] |
| --- | --- | --- | --- | --- |
| COc1cc(NC(=O)CCc2ccc3c(c2)C(=O)N(C2CCC(=O)NC2=O)C3)ccc1C (stereo not drawn) [Compound 33] | 5.96 to 6.30 | > 5.96 | 30 to 300 | – |
| O=C1CCC(N2Cc3ccc(CCC(=O)Nc4ccc(-c5ccccc5)nc4)cc3C2=O)C(=O)N1 (stereo not drawn) [Compound 34] | ≥ 6.30 | > 5.96 | ≤ 30 | 13 |
| Cc1c(CN2CCOCC2)cc(NC(=O)CCc2ccc3c(c2)C(=O)N(C2CCC(=O)NC2=O)C3)cc1OC(F)F (stereo not drawn) [Compound 35] | 5.96 to 6.30 | > 5.96 | ≤ 30 | 12 |
| COc1cc(NC(=O)CCc2ccc3c(c2)C(=O)N(C2CCC(=O)NC2=O)C3)cnc1C (stereo not drawn) [Compound 36] | 5.77 to 5.96 | – | > 300 | – |
| CN1CCC(COc2cc(Cl)cc(NC(=O)CCc3ccc4c(c3)C(=O)N(C3CCC(=O)NC3=O)C4)c2)C1 (stereo not drawn) [Compound 37] | 5.96 to 6.30 | > 5.96 | > 300 | – |
| O=C1CCC(N2Cc3ccc(CCC(=O)Nc4ccc(C5CC5)cc4)cc3C2=O)C(=O)N1 (stereo not drawn) [Compound 38] | ≥ 6.30 | > 5.96 | > 300 | – |
| Cc1c(Cl)cc(NC(=O)CCc2ccc3c(c2)C(=O)N(C2CCC(=O)NC2=O)C3)cc1OCCN1CCOCC1 (stereo not drawn) [Compound 39] | ≥ 6.30 | > 5.96 | 30 to 300 | – |
| Cc1c(Cl)cc(NC(=O)CCc2ccc3c(c2)C(=O)N(C2CCC(=O)NC2=O)C3)cc1OC1CCNC1 (stereo not drawn) [Compound 40, N-(3-chloro-4-methyl-5-(pyrrolidin-3-yloxy)phenyl)-3-(2-(2,6-dioxopiperidin-3-yl)-3-oxoisoindolin-5-yl)propanamide] | ≥ 6.30 | > 5.96 | > 300 | – |
| CC(C)(C)c1ccc(NC(=O)CCc2ccc3c(c2)C(=O)N(C2CCC(=O)NC2=O)C3)cn1 (stereo not drawn) [Compound 41] | 5.77 to 5.96 | – | ≤ 30 | 26 |
| Cc1c(F)cc(NC(=O)CCc2ccc3c(c2)C(=O)N(C2CCC(=O)NC2=O)C3)cc1CN1CCOCC1 (stereo not drawn) [Compound 42] | 5.77 to 5.96 | – | ≤ 30 | 30 |
| CCc1cc(NC(=O)CCc2ccc3c(c2)C(=O)N(C2CCC(=O)NC2=O)C3)cc(Cl)c1C (stereo not drawn) [Compound 43] | 5.77 to 5.96 | – | ≤ 30 | 26 |
| O=C1CCC(N2Cc3ccc(CCC(=O)Nc4ccc(-c5ccccn5)cc4)cc3C2=O)C(=O)N1 (stereo not drawn) [Compound 44] | 5.96 to 6.30 | > 5.96 | ≤ 30 | 27 |
| CC(C)(C)c1ccc(NC(=O)CCc2ccc3c(c2)C(=O)N(C2CCC(=O)NC2=O)C3)cc1 (stereo not drawn) [Compound 45] | 5.96 to 6.30 | > 5.96 | ≤ 30 | 22 |
| CCc1cc(NC(=O)CCc2ccc3c(c2)C(=O)N(C2CCC(=O)NC2=O)C3)cnc1C (stereo not drawn) [Compound 46] | 5.96 to 6.30 | > 5.96 | 30 to 300 | – |
| CCc1ncc(NC(=O)CCc2ccc3c(c2)C(=O)N(C2CCC(=O)NC2=O)C3)cc1C (stereo not drawn) [Compound 47] | 5.96 to 6.30 | > 5.96 | 30 to 300 | – |
| O=C1CCC(N2Cc3ccc(CCC(=O)Nc4cnc5c(c4)COCC5)cc3C2=O)C(=O)N1 (stereo not drawn) [Compound 48] | 5.77 to 5.96 | – | > 300 | – |
| O=C1CCC(N2Cc3ccc(CCC(=O)Nc4cnc5c(c4)CCC5)cc3C2=O)C(=O)N1 (stereo not drawn) [Compound 49] | 5.77 to 5.96 | – | > 300 | – |
| Cc1c(Cl)cc(NC(=O)CCc2ccc3c(c2)C(=O)N(C2CCC(=O)NC2=O)C3)cc1OC1CCN(C)C1 (stereo not drawn) [Compound 50] | ≥ 6.30 | > 5.96 | 30 to 300 | – |
| Cc1c(Cl)cc(NC(=O)CCc2ccc3c(c2)C(=O)N(C2CCC(=O)NC2=O)C3)cc1OCC1CCNC1 (stereo not drawn) [Compound 51] | ≥ 6.30 | > 5.96 | > 300 | – |
| Cc1cc(NC(=O)CCc2ccc3c(c2)C(=O)N(C2CCC(=O)NC2=O)C3)cc(C)n1 (stereo not drawn) [Compound 52] | < 5.77 | – | > 300 | – |
| Cc1c(CN2CCOCC2)cc(NC(=O)CCc2ccc3c(c2)C(=O)N(C2CCC(=O)NC2=O)C3)cc1OC(F)(F)F (stereo not drawn) [Compound 53] | 5.96 to 6.30 | > 5.96 | ≤ 30 | 22 |
| CCc1cc(NC(=O)CCc2ccc3c(c2)C(=O)N(C2CCC(=O)NC2=O)C3)ccn1 (stereo not drawn) [Compound 54] | 5.96 to 6.30 | > 5.96 | > 300 | – |
| CC1(c2ccc(NC(=O)CCc3ccc4c(c3)C(=O)N(C3CCC(=O)NC3=O)C4)cc2)COC1 (stereo not drawn) [Compound 55] | 5.77 to 5.96 | – | > 300 | – |
| O=C1CCC(N2Cc3ccc(CCC(=O)Nc4cc(F)cc(OC(F)(F)F)c4)cc3C2=O)C(=O)N1 (stereo not drawn) [Compound 56] | < 5.77 | – | 30 to 300 | – |
| CCc1cc(NC(=O)CCc2ccc3c(c2)C(=O)N(C2CCC(=O)NC2=O)C3)cc(C)n1 (stereo not drawn) [Compound 57] | ≥ 6.30 | > 5.96 | > 300 | – |
| CC1(c2ccc(NC(=O)CCc3ccc4c(c3)C(=O)N(C3CCC(=O)NC3=O)C4)cc2)CC1 (stereo not drawn) [Compound 58] | 5.77 to 5.96 | – | 30 to 300 | – |
| O=C1CCC(N2Cc3ccc(CCC(=O)Nc4cc(OC(F)(F)F)ccn4)cc3C2=O)C(=O)N1 (stereo not drawn) [Compound 59] | 5.96 to 6.30 | > 5.96 | > 300 | – |
| O=C1CCC(N2Cc3ccc(CCC(=O)Nc4ccc(F)c(OC(F)(F)F)c4)cc3C2=O)C(=O)N1 (stereo not drawn) [Compound 60] | < 5.77 | – | 30 to 300 | – |
